Measured values reported in ChEMBL document CHEMBL1201862, “PubChem BioAssay data set” (2004).
Values belong to the compound of their own block, whether it stands above or below them. Active and inactive are the calls of the source.

Tests used:
Interleukin-8 [1] = biological target: T1, Interleukin-8 (Homo sapiens, UniProt P10145); test: SAR analysis of Tumor necrosis factor alpha (TNF-alpha) induced IL-8 secretion in MCF-7/NOD1 cells - Set 2. [Related pubchem assays (depositor defined):AID1575, AID2250, AID2260]; type: functional, cell-based
T1 sequence (P10145 whole entry): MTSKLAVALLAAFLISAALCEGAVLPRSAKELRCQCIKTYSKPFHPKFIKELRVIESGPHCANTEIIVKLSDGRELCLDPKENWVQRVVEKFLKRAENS

HEK293 [2] = test: SAR analysis of compounds that are cytotoxic to HEK293 - Set 2. [Related pubchem assays (depositor defined):AID1575, AID1578, AID1849, AID2001, AID2333, AID2334, AID2335, AID2337, AID2800]; type: functional, cell-based; settings: Homo sapiens
Interleukin-8 [3] = biological target: T1, Interleukin-8; test: SAR analysis of GM-Tri-DAP induced IL-8 secretion in MCF-7/NOD1 cells - Set 2. [Related pubchem assays (depositor defined):AID1575, AID1578, AID2333]; type: functional, cell-based
[4] = biological target: T2, Nucleotide-binding oligomerization domain-containing protein 2 (Homo sapiens, UniProt Q9HC29); test: NOD2 signaling inhibitors, analog potency, SAR follow-up, cell-based, set 3 (AID 2799); type: functional
[5] = biological target: T3, Nucleotide-binding oligomerization domain-containing protein 1 (Homo sapiens, UniProt Q9Y239); test: SAR analysis of compounds that inhibit NOD1 - Set 2. [Related pubchem assays (depositor defined):AID1566, AID1575, AID1578, AID1849, AID1852, AID2333, AID2335, AID2798]; type: functional
T3 sequence (Q9Y239 whole entry): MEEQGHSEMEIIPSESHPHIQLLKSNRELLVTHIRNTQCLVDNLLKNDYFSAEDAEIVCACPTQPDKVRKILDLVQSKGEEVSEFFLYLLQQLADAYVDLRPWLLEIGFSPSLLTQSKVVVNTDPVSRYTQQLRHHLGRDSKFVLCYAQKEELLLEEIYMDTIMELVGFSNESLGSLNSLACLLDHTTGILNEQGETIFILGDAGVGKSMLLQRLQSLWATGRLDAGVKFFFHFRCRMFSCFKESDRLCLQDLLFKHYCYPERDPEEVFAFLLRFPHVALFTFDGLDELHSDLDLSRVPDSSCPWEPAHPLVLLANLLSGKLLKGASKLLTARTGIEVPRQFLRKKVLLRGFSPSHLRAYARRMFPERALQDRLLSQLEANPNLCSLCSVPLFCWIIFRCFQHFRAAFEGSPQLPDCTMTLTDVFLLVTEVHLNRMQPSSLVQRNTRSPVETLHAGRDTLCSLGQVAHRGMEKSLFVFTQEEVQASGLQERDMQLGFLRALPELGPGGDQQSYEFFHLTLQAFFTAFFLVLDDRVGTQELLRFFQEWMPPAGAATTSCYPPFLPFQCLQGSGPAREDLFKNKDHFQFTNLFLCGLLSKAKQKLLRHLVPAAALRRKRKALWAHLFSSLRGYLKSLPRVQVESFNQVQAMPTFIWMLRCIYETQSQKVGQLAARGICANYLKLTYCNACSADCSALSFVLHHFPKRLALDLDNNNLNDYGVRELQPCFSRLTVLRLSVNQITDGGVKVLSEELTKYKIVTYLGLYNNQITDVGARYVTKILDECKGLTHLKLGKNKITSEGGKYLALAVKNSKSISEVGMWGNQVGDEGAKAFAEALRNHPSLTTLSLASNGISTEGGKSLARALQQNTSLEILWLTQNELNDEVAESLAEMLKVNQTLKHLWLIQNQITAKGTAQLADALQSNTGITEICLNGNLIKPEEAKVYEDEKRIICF

Tumor necrosis factor = Tumor necrosis factor (Homo sapiens, UniProt P01375); test: TNFa-triggered NF-kB activation inhibitors, SAR follow-up, cell-based, set 3 (AID 2801); type: functional
[6] = biological target: T3, Nucleotide-binding oligomerization domain-containing protein 1; test: SAR analysis of compounds that inhibit NOD1 - Set 3. [Related pubchem assays (depositor defined):AID1566, AID1575, AID1578, AID1849, AID1852, AID2333, AID2335, AID2466]; type: functional
[7] = biological target: T2, Nucleotide-binding oligomerization domain-containing protein 2; test: NOD2 inhibitors, SAR follow-up, set 2 (AID 2475); type: functional
[8] = biological target: T3, Nucleotide-binding oligomerization domain-containing protein 1; test: SAR analysis of NF-kappaB dependent luciferase using DAP as an inducer - Set 2. [Related pubchem assays (depositor defined):AID1566, AID1575, AID1578, AID1579, AID1849, AID1852, AID2264]; type: functional
HEK293 [9] = test: SAR analysis of compounds that are cytotoxic to HEK293 - Set 3. [Related pubchem assays (depositor defined):AID1575, AID1578, AID1848, AID1849, AID2001, AID2333, AID2334, AID2335, AID2337, AID2469]; type: functional, cell-based; settings: Homo sapiens
[10] = biological target: T4, G-protein coupled receptor 55 (Homo sapiens, UniProt Q9Y2T6); test: GPR55 antagonists blocking LPI-driven arrestin recruitment, primary screen, imaging, U2OS, beta-arrestin-GFP, LPI agonist (AID 2013); type: functional;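 further: antagonist potency measured as reduced agonist-driven arrestin aggregation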
Cannabinoid receptor 2 [11] = biological target: T5, Cannabinoid receptor 2 (Homo sapiens, UniProt P34972); test: SAR analysis of antagonists of the Cannabinoid Receptor 2 using an Image-Based Assay - Set 2. [Related pubchem assays (depositor defined):AID1961, AID1965]; type: functional
Cannabinoid receptor 2 [12] = biological target: T5, Cannabinoid receptor 2; test: SAR analysis of agonists of the Cannabinoid Receptor 2 using an Image-Based Assay - Set 2. [Related pubchem assays (depositor defined):AID1961, AID1965]; type: functional
[13] = biological target: T6, G-protein coupled receptor 35 (Homo sapiens, UniProt Q9HC97); test: SAR analysis of Antagonists of the GPR35 Receptor using an Image-Based Assay - Set 4. [Related pubchem assays (depositor defined):[…]]; type: functional
Cannabinoid receptor 1 [14] = biological target: T7, Cannabinoid receptor 1 (Homo sapiens, UniProt P21554); test: SAR analysis of agonists of the Cannabinoid Receptor 1 using an Image-Based Assay - Set 3. [Related pubchem assays (depositor defined):AID1961, AID1965]; type: functional
[15] = biological target: T6, G-protein coupled receptor 35; test: SAR analysis of Agonists of the GPR35 Receptor using an Image-Based Assay - Set 3. [Related pubchem assays (depositor defined):AID1961, AID1965]; type: functional
[16] = biological target: T4, G-protein coupled receptor 55; test: SAR analysis of selective Agonists of GPR55 using an Image-Based Assay - Set 2. [Related pubchem assays (depositor defined):AID1961, AID1965]; type: functional
Cannabinoid receptor 1 [17] = biological target: T7, Cannabinoid receptor 1; test: SAR analysis of antagonists of the Cannabinoid Receptor 1 using an Image-Based Assay - Set 3. [Related pubchem assays (depositor defined):AID1961, AID1965]; type: functional
[18] = biological target: T8, Intestinal-type alkaline phosphatase (Homo sapiens, UniProt P09923); test: human intestinal alkaline phosphatase activators, dose response, biochemical, luminescence, uHTS hits (AID 463120); type: functional
[19] = biological target: T8, Intestinal-type alkaline phosphatase; test: Dose Response confirmation of uHTS hits from a small molecule inhibitors of human intestinal alkaline phosphatase via a luminescent assay. [Related pubchem assays (depositor defined):AID2544, AID2574]; type: functional

T7 sequence (P21554 whole entry): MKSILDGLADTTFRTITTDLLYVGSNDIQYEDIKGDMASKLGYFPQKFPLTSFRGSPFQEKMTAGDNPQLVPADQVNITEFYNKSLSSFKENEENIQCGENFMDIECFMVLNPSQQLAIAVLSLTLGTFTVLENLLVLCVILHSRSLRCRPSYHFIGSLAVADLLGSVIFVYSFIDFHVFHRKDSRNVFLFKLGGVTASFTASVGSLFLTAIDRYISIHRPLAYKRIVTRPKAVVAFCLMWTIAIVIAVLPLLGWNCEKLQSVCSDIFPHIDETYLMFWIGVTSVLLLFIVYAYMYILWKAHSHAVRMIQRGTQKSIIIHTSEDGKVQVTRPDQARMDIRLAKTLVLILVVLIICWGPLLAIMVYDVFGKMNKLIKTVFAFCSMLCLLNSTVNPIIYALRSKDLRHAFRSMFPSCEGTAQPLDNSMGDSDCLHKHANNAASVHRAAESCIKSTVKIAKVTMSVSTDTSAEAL
T4 sequence (Q9Y2T6 whole entry): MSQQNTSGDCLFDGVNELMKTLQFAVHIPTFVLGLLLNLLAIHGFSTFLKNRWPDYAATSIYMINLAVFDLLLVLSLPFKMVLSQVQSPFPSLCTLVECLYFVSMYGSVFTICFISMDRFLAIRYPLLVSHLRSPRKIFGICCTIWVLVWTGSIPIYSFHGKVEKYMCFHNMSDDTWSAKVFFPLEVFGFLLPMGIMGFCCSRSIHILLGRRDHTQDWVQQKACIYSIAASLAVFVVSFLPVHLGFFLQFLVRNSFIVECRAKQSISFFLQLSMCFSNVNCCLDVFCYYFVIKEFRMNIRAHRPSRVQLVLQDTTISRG
T2 sequence (Q9HC29 whole entry, the tested form may be a part): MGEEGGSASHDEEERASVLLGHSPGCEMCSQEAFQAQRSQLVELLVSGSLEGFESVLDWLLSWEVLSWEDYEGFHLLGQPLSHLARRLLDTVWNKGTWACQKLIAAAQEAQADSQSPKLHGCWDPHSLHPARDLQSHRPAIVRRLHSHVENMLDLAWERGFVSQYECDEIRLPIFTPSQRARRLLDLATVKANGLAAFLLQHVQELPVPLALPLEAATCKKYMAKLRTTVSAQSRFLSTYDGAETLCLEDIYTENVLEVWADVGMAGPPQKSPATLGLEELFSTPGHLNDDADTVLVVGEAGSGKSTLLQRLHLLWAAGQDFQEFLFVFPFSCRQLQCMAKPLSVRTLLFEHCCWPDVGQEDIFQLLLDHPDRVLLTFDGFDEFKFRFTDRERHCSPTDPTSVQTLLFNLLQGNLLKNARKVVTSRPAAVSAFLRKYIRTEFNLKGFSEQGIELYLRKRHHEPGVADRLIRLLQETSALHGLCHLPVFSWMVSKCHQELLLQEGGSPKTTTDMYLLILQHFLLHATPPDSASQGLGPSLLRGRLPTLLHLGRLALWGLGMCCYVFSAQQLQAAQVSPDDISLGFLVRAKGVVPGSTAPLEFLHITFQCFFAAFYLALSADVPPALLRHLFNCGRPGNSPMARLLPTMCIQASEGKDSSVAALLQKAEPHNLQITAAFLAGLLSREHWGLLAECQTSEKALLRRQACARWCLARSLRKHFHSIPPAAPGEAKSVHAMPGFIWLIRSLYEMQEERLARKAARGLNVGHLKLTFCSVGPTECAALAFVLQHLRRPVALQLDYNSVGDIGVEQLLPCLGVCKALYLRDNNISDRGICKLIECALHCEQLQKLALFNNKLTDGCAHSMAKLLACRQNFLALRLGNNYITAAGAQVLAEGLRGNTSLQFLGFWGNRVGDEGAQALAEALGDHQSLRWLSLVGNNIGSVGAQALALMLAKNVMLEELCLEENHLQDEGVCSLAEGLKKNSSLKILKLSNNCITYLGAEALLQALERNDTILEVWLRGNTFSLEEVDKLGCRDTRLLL
T6 sequence (Q9HC97 whole entry): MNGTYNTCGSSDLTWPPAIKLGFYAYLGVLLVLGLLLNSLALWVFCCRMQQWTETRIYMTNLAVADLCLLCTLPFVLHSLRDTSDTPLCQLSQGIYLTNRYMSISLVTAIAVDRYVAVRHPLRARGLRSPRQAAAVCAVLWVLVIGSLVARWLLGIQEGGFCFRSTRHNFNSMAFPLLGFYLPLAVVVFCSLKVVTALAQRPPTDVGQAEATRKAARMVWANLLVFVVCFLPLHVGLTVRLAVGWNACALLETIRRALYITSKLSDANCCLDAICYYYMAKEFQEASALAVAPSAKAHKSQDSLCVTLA
T5 sequence (P34972 whole entry): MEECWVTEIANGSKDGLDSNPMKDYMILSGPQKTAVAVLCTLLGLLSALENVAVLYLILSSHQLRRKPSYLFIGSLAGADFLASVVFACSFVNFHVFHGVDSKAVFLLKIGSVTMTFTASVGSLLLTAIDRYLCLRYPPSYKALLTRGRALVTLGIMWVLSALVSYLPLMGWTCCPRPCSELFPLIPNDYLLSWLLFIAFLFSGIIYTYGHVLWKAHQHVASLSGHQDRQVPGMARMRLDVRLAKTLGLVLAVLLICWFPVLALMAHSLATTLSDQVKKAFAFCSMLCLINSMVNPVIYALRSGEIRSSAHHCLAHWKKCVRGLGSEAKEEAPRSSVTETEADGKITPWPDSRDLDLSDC
T8 sequence (P09923 whole entry): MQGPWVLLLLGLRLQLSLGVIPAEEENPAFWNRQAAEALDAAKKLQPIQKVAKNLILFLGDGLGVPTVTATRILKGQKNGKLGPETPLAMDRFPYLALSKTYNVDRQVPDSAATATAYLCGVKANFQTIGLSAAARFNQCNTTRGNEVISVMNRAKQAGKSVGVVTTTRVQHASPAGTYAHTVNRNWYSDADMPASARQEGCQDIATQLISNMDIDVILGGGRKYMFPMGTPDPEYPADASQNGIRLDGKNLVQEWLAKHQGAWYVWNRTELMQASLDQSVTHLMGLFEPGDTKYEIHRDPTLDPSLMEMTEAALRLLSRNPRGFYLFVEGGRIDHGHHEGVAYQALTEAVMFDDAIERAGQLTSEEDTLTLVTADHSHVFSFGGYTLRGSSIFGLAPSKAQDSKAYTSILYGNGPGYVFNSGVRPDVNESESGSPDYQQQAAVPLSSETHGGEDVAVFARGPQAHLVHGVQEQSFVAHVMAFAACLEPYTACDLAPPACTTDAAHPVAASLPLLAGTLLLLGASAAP
Sequence of Tumor necrosis factor (P01375 whole entry, the tested form may be a part): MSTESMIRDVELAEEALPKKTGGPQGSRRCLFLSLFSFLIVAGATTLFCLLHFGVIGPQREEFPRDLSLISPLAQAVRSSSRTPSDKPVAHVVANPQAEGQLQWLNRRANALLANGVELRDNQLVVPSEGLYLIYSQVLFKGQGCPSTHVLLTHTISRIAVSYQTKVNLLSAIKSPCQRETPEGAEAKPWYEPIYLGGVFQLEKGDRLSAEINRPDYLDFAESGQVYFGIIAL

Compound: C=CCn1c(SCCCc2ccccc2)nc2c1c(=O)[nH]c(=O)n2C
IC50 (Interleukin-8 [1]): > 25 µM (inactive) | IC50 (HEK293 [2]): > 20 µM (inactive) | IC50 (Interleukin-8 [3]): > 25 µM (inactive) | IC50 [4]: > 20 µM (inactive) | IC50 [5]: 9.33 µM (active) | IC50 (Tumor necrosis factor): > 20 µM (inactive) | IC50 [6]: > 20 µM (inactive) | IC50 [7]: 14.8 µM (active) | IC50 [8]: > 25 µM (inactive) | IC50 (HEK293 [9]): > 20 µM (inactive)

IC50 [10]: < 0.5 µM (active)
Compound: CCOC(=O)c1c(NC(=O)C2=C(C)N=C(S)NC2c2ccc(C)cc2)sc(C)c1C (stereo not given)

IC50 (Cannabinoid receptor 2 [11]): > 32 µM (inactive) | EC50 (Cannabinoid receptor 2 [12]): > 32 µM (inactive) | IC50 [13]: > 32 µM (inactive) | EC50 (Cannabinoid receptor 1 [14]): > 32 µM (inactive) | EC50 [15]: > 32 µM (inactive) | EC50 [16]: 0.409 µM (active) | IC50 (Cannabinoid receptor 1 [17]): > 32 µM (inactive)
Compound: CCC1CCc2sc(C(=O)Nc3cc(S(=O)(=O)N4CCOCC4)ccc3OC)cc2C1 (stereo not given)

EC50 [18]: > 100 µM (inactive) | IC50 [19]: > 100 µM (inactive)
Compound: COc1ccc(CC2CC(=O)N(c3ccc(C)cc3)C2=O)cc1 (stereo not given)
